In patent US20220389058A1, “PEPTIDES AND COMPOSITIONS FOR USE IN COSMETICS AND MEDICINE” (LIPOTRUE, S.L., priority 2019, published 2022):

Tests used:
[1] = system: recombinant mushroom tyrosinase; assay: Tyrosinase activity, L-DOPA/dopachrome absorbance (Example 11); format: biochemical; settings: 0.05-2.5 mg/mL (Ac-SEQ ID NO: 4-NH2: 0.005-2.5 mg/mL); 30 minutes preincubation, L-DOPA, 2 hours, absorbance 450 nm; vs non-treated control (100%)
Procedure: Briefly, different concentrations of Ac-SEQ ID NO: 1-NH2 (0.05, 0.25, 0.5 and 2.5 mg/mL), Ac-SEQ ID NO: 2-NH2 (0.05, 0.25, 0.5 and 2.5 mg/mL), Ac-SEQ ID NO: 3-NH2 (0.05, 0.25, 0.5 and 2.5 mg/mL) and Ac-SEQ ID NO: 4-NH2 (0.005, 0.025, 0.05, 0.25, 0.5 and 2.5 mg/mL) and the positive control kojic acid (400 and 800 μM) were incubated with recombinant mushroom tyrosinase for 30 minutes before the addition of L-DOPA (L-3,4 dihidroxiphenilalanine, 2.5 mg/mL in PBS). After 2 hours' reaction at room temperature, the absorbance at 450 nm of each well was determined using the microplate reader Multiskan FC (Thermo Fisher Scientific, Mass., USA), which is directly proportional to the amount of dopachrome in the reaction mixture.

human skin explants [2] = assay: Ex vivo fibrillin-1 immunostaining after methylglyoxal (Example 15); settings: cream containing 1% Ac-SEQ ID NO: 1-NH2, topical 2 mg/cm^2; methylglyoxal 500 μM; day 9
Procedure: Briefly, human skin explants from a person were kept in survival in BEM culture medium at 37° C. in a humid, 5% CO2 atmosphere. A placebo cream and a cream containing 1% Ac-SEQ ID NO: 1-NH2, prepared according to Example 6, were applied topically on the basis of 2 μL per explant (2mg/cm^2) and spread using a small spatula on day 0 (DO), day 1, day 4, day 6 and day 8. […] To induce glycation, a solution of Methylglyoxal (MG) was incorporated in the BEM culture medium at a final concentration of 500 μM on day 4, day 6 and day 8, on the concerned batches “MG” (all samples except control untreated samples). Explants were collected at each timepoint and cut in two parts. Half was fixed in buffered formalin solution and half was frozen at −80° C.
The nuclei were counterstained with propidium iodide.

human skin explants [3] = assay: Ex vivo methylglyoxal-induced glycation, CML immunostaining (Example 14); settings: cream containing 1% (w/v) Ac-SEQ ID NO: 1-NH2, topical 2 mg/cm^2; methylglyoxal 500 μM; after 9 days of culture
Procedure: Briefly, human skin explants from a person were kept in survival in BEM culture medium at 37° C. in a humid, 5% CO2 atmosphere. […] Explants were collected at each timepoint and cut in two parts. Half was fixed in buffered formalin solution and half was frozen at −80° C.
After fixation for 24 hours in buffered formalin, the samples were dehydrated and impregnated in paraffin. 5-μm-thick sections were made using a Leica RM 2125 Minot-type microtome, and the sections were mounted on Superfrost® histological glass slides.

[4] = system: Human Epidermal Keratinocytes (HEKa); assay: Innate antimicrobial immunity related genes, RT-qPCR in HEKa (Example 20); format: cell-based; settings: 0.01 mg/mL, 6 h

## Ac-Arg-Arg-Gln-Met-Arg-Glu-NH2 (Ac-RRQMRE-NH2) [Ac-SEQ ID NO: 1-NH2]
[1]
  tyrosinase activity: inhibited tyrosinase in all the concentrations tested
Human skin explants [2]
  increase in fibrillin 1 staining when compared with the MG-exposed untreated control: 86%
Human skin explants [3]
  decrease in CML signal when compared with MG-exposed untreated explants: −73%
[4]
  DEFB1 Fold change vs. Basal: 1.31 Fold change
  DEFB4A Fold change vs. Basal: 1.58 Fold change
  IRF1 Fold change vs. Basal: 1.25 Fold change
  IRF3 Fold change vs. Basal: 1.54 Fold change
  ISG15 Fold change vs. Basal: 1.38 Fold change
  MX1 Fold change vs. Basal: 1.93 Fold change
  OAS2 Fold change vs. Basal: 1.39 Fold change
  S100A7 Fold change vs. Basal: 2.04 Fold change
